Assays:
MDCK epithelial cells = assay: Confocal fluorescence microscopy, intracellular localization of inclusions; type: cell-based, Canine; settings: 5 × 10^−6 M, 72 h, live cells
Experimental: (§1) Confocal Fluorescent Microscopy: A Nikon A1 confocal microscope was used for further investigation of live cells incubated with chiral pairs of compounds (T and U) and the parent compound, P. Since crystals or vesicular forms containing chemicals inside the cells incubated with Compound P, T, or U were fluorescent when viewed with the TRITC filter sets, intracellular distribution of these compounds in RAW264.7 or MDCK cells were visualized using a Nikon A1 confocal microscopy (Nikon Instruments Inc., Melville, NY) equipped with diode‐based lasers and a Nikon Apo 60×/1.4 NA oil immersion lens. Briefly, RAW264.7 macrophages or MDCK epithelial cells were seeded in the 8‐well Nunc Lab‐Tek II chambered (#1.5) cover glasses (Thermo Scientific, Pittsburgh, PA) at a density of 8 × 10^3 cells cm^−2 (RAW264.7 cells) or 1.5 × 10^4 cells cm^−2 (MDCK cells) and allowed to adhere overnight (37 °C, 5% CO2). Then, 5 × 10^−6 M of Compound “P” or the related isomers, “T” or “U” in DMEM with 5% FBS (300 μL) was added to the cells and the cells were incubated for 72 h (37 °C, 5% CO2). For live cell imaging, after the removal of media, cells were washed with HBSS buffer twice. Hoechst 33342 (Invitrogen, Carlsbad, CA) was used for staining cell nuclei and FM 1‐43 (Molecular Probes T35356, Invitrogen) for the plasma membrane. Cells were incubated with 300 μL of 1:1 (v/v) dye mixtures of 5 μg mL^−1 Hoechst 33342 and 7 × 10^−6 M FM 1‐43 in HBSS for 15 min at room temperature. Without fixative, the confocal imaging of the live cells was performed using lasers for DAPI (excitation/emission wavelength: 405 nm/450 ± 25 nm), FITC (488 nm/525 ± 25 nm), and TRITC (561 nm/596 ± 25 nm) channels. Z‐stack images of the cells were captured along the Z‐axis (interval, 1 μm) in three fluorescence channels and analyzed by using the Nikon NIS‐Elements 3.2 confocal software (Nikon Instruments Inc., Melville, NY). […]

RAW264.7 macrophages = assay: as above; type: cell-based; settings: 5 × 10^−6 M, 72 h, live cells
Experimental: as §1

| Compound | Intracellular localization of compound (fluorescence, TRITC channel) (MDCK epithelial cells) | Intracellular localization of compound (fluorescence, TRITC channel) (RAW264.7 macrophages) |
| --- | --- | --- |
| Clc1ccc(Nc2cc3nc4ccccc4n(-c4ccc(Cl)cc4)c-3cc2=NCCc2ccccc2)cc1 [Compound P] | localized at the periphery of the cell nuclei | localized at the periphery of the cell nuclei |
| C[C@@H](CN=c1cc2n(-c3ccc(Cl)cc3)c3ccccc3nc-2cc1Nc1ccc(Cl)cc1)c1ccccc1 [Compound U] | localized at the periphery of the cell nuclei | localized at the periphery of the cell nuclei |
